Results as given in patent US10626109B2, “N-hetaryl(thio)carbonyl-2-(benzocycloalken-1-yl)cyclamines and their use as fungicides” (BAYER CROPSCIENCE AKTIENGESELLSCHAFT, priority 2013, dated 2020).
Where two headings read alike, the source gives them in different places. Marks after values point to notes of the source that are not given here.

Tests used:
Puccinia recondita = assay: In vivo preventive test on Puccinia recondita (brown rust on wheat); conditions: for protection: in words, at a dose of 500 and 100 ppm of active ingredient, analogues 11 and 13 in very similar conditions
Description: [table] […] The young plants of wheat are treated by spraying the active ingredient prepared as described above. […] After 24 hours, the plants are contaminated by spraying the leaves with an aqueous suspension of Puccinia recondita spores. The contaminated wheat plants are incubated for 24 hours at 20° C. and at 100% relative humidity and then for 10 days at 20° C. and at 70-80% relative humidity. The test is evaluated 11 days after the inoculation. 0% means an efficacy which corresponds to that of the control plants while an efficacy of 100% means that no disease is observed.

[1] = log P by HPLC on reversed-phase column (C 18), EEC Directive 79/831 Annex V.A8; assay type: physicochemical
Description: In table 1, the log P values were determined in accordance with EEC Directive 79/831 Annex V.A8 by HPLC (High Performance Liquid Chromatography) on a reversed-phase column (C 18), using the method described below: Temperature: 40° C.; Mobile phases: 0.1% aqueous formic acid and acetonitrile; linear gradient from 10% acetonitrile to 90% acetonitrile. Calibration was carried out using unbranched alkan-2-ones (comprising 3 to 16 carbon atoms) with known log P values (determination of the log P values by the retention times using linear interpolation between two successive alkanones). lambda-max-values were determined using UV-spectra from 200 nm to 400 nm and the peak values of the chromatographic signals. In table 2, M+H (Apcl+) and log P are defined as for table 1.

Uromyces appendiculatus = assay: In vivo preventive test on Uromyces appendiculatus (bean rust)
Description: [table] The active ingredients are made soluble and homogenized in a mixture of Dimethyl sulfoxide/Acetone//Tween® 80 and then diluted in water to the desired concentration. The young plants of bean are treated by spraying the active ingredient prepared as described above. Control plants are treated only with an aqueous solution of Acetone/Dimethyl sulfoxide/Tween® 80. After 24 hours, the plants are contaminated by spraying the leaves with an aqueous suspension of Uromyces appendiculatus spores. The contaminated bean plants are incubated for 24 hours at 20° C. and at 100% relative humidity and then for 10 days at 20° C. and at 70-80% relative humidity. The test is evaluated 11 days after the inoculation. 0% means an efficacy which corresponds to that of the control plants while an efficacy of 100% means that no disease is observed.

[2] = Table 1, HPLC, 0.1% aqueous formic acid and acetonitrile, 40° C., second value of a mixture of two diastereoisomers
[3] = Table 1, HPLC, 0.1% aqueous formic acid and acetonitrile, 40° C., single value, or first value of a mixture of two diastereoisomers

Row | logP [1, 2] | logP [1, 3] | SMILES | other results
1 | 3.92 | 3.87 | Cn1nc(C(F)F)c(C(=O)N2CCCC2C2CCc3ccc(Cl)cc32)c1Cl (mixture of isomers) [I.20] | 
2 |  | 3.52 | Cc1nc(C(F)F)c(C(=O)N2CCCC2C2CCc3cc(F)cc(F)c32)s1 (single isomer, unassigned) [I.37] | 
3 |  | 3.55 | Cc1nc(C(F)F)c(C(=O)N2CCCC2C2CCc3cc(F)cc(F)c32)s1 (single isomer, unassigned) [I.38] | 
4 |  | 3.67 | Cn1nc(C(F)F)c(C(=O)N2CCCCC2C2CCCc3ccccc32)c1F (stereo not drawn) [I.31] | Efficacy (Puccinia recondita; Table C1, dose 100 ppm, wheat): 64%; Efficacy (Puccinia recondita; Table C1, dose 500 ppm, wheat): 93%; protection (Puccinia recondita; wheat): excellent (at least 90%) to average (at least 60%) protection
5 | 3.68 | 3.50 | Cn1cc(C(=O)N2CCCCC2C2CCCCc3ccccc32)c(C(F)F)n1 (mixture of isomers) [I.33] | 
6 |  | 4.82 | Cn1nc(C(F)F)c(C(=O)N2CCCC2C2CCc3ccc(C(C)(C)C)cc32)c1Cl (stereo not drawn) [I.23] | 
7 |  | 3.68 | Cn1cc(C(=O)N2CCCC2C2CCc3cc(F)cc(F)c32)c(C(F)(F)F)c1 (single isomer, unassigned) [I.39] | 
8 | 3.70 | 3.68 | Cn1nc(C(F)F)c(C(=O)N2CCCC2C2CCc3ccc(Cl)cc32)c1F (mixture of isomers) [I.21] | 
9 | 2.90 | 2.46 | Cn1cc(C(=O)N2CCCCC2C2CCOc3ccccc32)c(C(F)F)n1 (mixture of isomers) [I.35] | 
10 | 3.55 | 3.44 | Cn1nc(C(F)F)c(C(=O)N2CCCCC2C2CCc3ccccc32)c1F (mixture of isomers) [I.30] | 
11 | 3.79 | 3.68 | Cn1nc(C(F)F)c(C(=O)N2CCCC2C2CCCc3ccccc32)c1Cl (mixture of isomers) [I.25] | 
12 |  | 4.16 | Cn1cc(C(=O)N2CCCC2C2CCc3ccc(C(C)(C)C)cc32)c(C(F)F)n1 (stereo not drawn) [I.22] | 
13 | 4.77 | 4.56 | Cn1nc(C(F)F)c(C(=S)N2CCCC2C2CCCc3ccccc32)c1Cl (mixture of isomers) [I.28] | 
14 | 3.27 | 3.19 | Cn1cc(C(=O)N2CCCC2C2CCc3ccc(Cl)cc32)c(C(F)F)n1 (mixture of isomers) [I.19] | 
15 | 4.15 | 3.96 | Cn1nc(C(F)F)c(C(=O)N2CCCCC2C2CCCCc3ccccc32)c1F (mixture of isomers) [I.34] | 
16 |  | 3.70 | Cn1cc(C(=O)N2CCCC2C2CCc3cc(F)cc(F)c32)c(C(F)(F)F)c1 (single isomer, unassigned) [I.40] | 
17 |  | 3.17 | Cn1cc(C(=O)N2CCCCC2C2CCCc3ccccc32)c(C(F)F)n1 (stereo not drawn) [I.32] | 
18 | 3.37 | 3.29 | Cn1nc(C(F)F)c(C(=O)N2CCCC2C2CCc3cc(F)ccc32)c1F (mixture of isomers) [I.18] | 
19 |  | 4.01 | Cn1nc(C(F)F)c(C(=S)N2CCCC2C2CCc3c(F)cccc32)c1F (stereo not drawn) [I.41] | 
20 | 3.27 | 2.86 | Cn1nc(C(F)F)c(C(=O)N2CCCCC2C2CCOc3ccccc32)c1F (mixture of isomers) [I.36] | 
21 | 3.13 | 2.96 | Cn1cc(C(=O)N2CCCCC2C2CCc3ccccc32)c(C(F)F)n1 (mixture of isomers) [I.29] | 
22 | 3.00 | 2.84 | Cn1cc(C(=O)N2CCCC2C2CCc3cc(F)ccc32)c(C(F)F)n1 (mixture of isomers) [I.17] | 

Continued, molecule first:

Row | SMILES | logP [1, 2] | logP [1, 3] | other results
23 | Cn1nc(C(F)F)c(C(=O)N(CCc2ccccc2)C2CC2)c1F [11 from WO-2011/151369, N-cyclopropyl-3-(difluoromethyl)-5-fluoro-1-methyl-N-(2-phenylethyl)-1H-pyrazole-4-carboxamide] |  |  | Efficacy (Puccinia recondita; Table C2, dose 100 ppm, formulated in DMF with 2% of alkylarylpolyglycolether): 0 ^(a) %; Efficacy (Puccinia recondita; Table C2, dose 500 ppm, formulated in DMF with 2% of alkylarylpolyglycolether): 10 ^(a) %; protection (Puccinia recondita; wheat): poor (less than 40%) to no protection
24 | Cn1cc(C(=O)N2CCCC2C2CCc3c(F)cccc32)c(C(F)F)n1 (mixture of isomers) [I.01] | 2.98 | 2.88 | 
25 | Cn1nc(C(=O)N2CCCC2C2CCc3cc(F)cc(F)c32)c(C(F)F)n1 (single isomer, unassigned) [I.15, [2-(5,7-difluoro-2,3-dihydro-1H-inden-1-yl)pyrrolidin-1-yl][5-(difluoromethyl)-2-methyl-2H-1,2,3-triazol-4-yl]methanone] |  |  | chromatographic logP ([1]; reversed-phase HPLC column (C 18), separated diastereoisomers, preparation Example 1, read-out: log P): 3.63
26 | CCC(c1ccccc1)C1CCCCN1C(=O)c1c(C(F)F)nn(C)c1F (stereo not drawn) [136 from WO-2012/052489, [3-(difluoromethyl)-5-fluoro-1-methyl-1H-pyrazol-4-yl][2-(1-phenylpropyl)piperidin-1-yl]methanone] |  |  | Efficacy (Puccinia recondita; Table C1, dose 100 ppm, wheat): 50%; Efficacy (Puccinia recondita; Table C1, dose 500 ppm, wheat): 65%; protection (Puccinia recondita; wheat): average protection
27 | c1ccc2c(c1)CCCCC2C1CCCCN1 (stereo not drawn) [IIa.03, 2-(6,7,8,9-tetrahydro-5H-benzo[7]annulen-5-yl)piperidine] |  |  | chromatographic logP ([1]; logP): 1.31
28 | Cn1nc(C(F)F)c(C(=O)N2CCCC2C2CCc3c(F)cccc32)c1Cl (stereo not drawn) [I.02] |  | 3.48 | 
29 | Cc1cc(C(=O)N2CCCC2C2CCc3c(F)cccc32)c(C)o1 (single isomer, unassigned) [I.06] |  | 3.74 | 
30 | c1ccc2c(c1)OCCC2C1CCCCN1 (stereo not drawn) [IIa.04, 2-(3,4-dihydro-2H-chromen-4-yl)piperidine] |  |  | chromatographic logP ([1]; reversed-phase HPLC column (C 18), Table 2, compounds of formula (IIa), HPLC as for table 1, read-out: logP): 0.82
31 | Cn1nc(C(F)F)c(C(=O)N2CCCC2C2CCc3cc(Cl)cc(Cl)c32)c1Cl (mixture of isomers) [I.09] | 4.41 | 4.34 | 
32 | Cc1cc(C(=O)N2CCCC2C2CCc3c(F)cccc32)c(C)o1 (single isomer, unassigned) [I.07] |  | 3.90 | 
33 | c1ccc2c(c1)CCCC2C1CCCCN1 (stereo not drawn) [IIa.02, 2-(1,2,3,4-tetrahydronaphthalen-1-yl)piperidine] |  |  | chromatographic logP ([1]; logP): 1.21
34 | Cn1nc(C(F)F)c(C(=O)N2CCCC2C2CCc3cc(Cl)cc(Cl)c32)c1F (stereo not drawn) [I.10] |  | 4.14 | 
35 | Cn1cc(C(=O)N2CCCC2C2CCc3cc(F)cc(F)c32)c(C(F)F)n1 (stereo not drawn) [I.11] |  | 2.96 | 
36 | O=C(c1ccsc1Br)N1CCCC1C1CCc2c(F)cccc21 (single isomer, unassigned) [I.04] |  | 3.87 | 
37 | O=C(c1ccsc1Br)N1CCCC1C1CCc2c(F)cccc21 (single isomer, unassigned) [I.05] |  | 3.96 | 
38 | CCC(c1ccccc1)C1CCCN1C(=O)c1c(C(F)F)nn(C)c1F (stereo not drawn) [53 from WO2012/052491, [3-(difluoromethyl)-5-fluoro-1-methyl-1H-pyrazol-4-yl][2-(1-phenylpropyl)pyrrolidin-1-yl]methanone, reference compound] |  |  | Efficacy (Uromyces appendiculatus; Table G1, dose 100 ppm): 0%; Efficacy (Uromyces appendiculatus; Table G1, dose 500 ppm): 77%; protection (Uromyces appendiculatus; in words, at a dose of 500 and 100 ppm of active ingredient): good (at least 70%) to no protection
39 | Cn1nc(C(F)F)c(C(=O)N2CCCC2C2CCc3c(F)cccc32)c1F (mixture of isomers) [I.03] | 3.35 | 3.31 | 
40 | Cn1nc(C(F)F)c(C(=O)N2CCCC2C2CCc3cc(F)ccc32)c1Cl (stereo not drawn) [I.16] |  | 3.50 | 
41 | Cn1nc(C(F)F)c(C(=O)N2CCCC2C2CCc3cc(F)cc(F)c32)c1Cl (mixture of isomers) [I.12] | 3.59 | 3.55 | 
42 | Cn1nc(C(F)F)c(C(=O)N2CCCC2C2CCc3cc(F)cc(F)c32)c1F (mixture of isomers) [I.13] | 3.41 | 3.35 | 
43 | Cn1cc(C(=O)N2CCCC2C2CCc3cc(Cl)cc(Cl)c32)c(C(F)F)n1 (stereo not drawn) [I.08] |  | 3.61 | 
44 | c1ccc2c(c1)CCC2C1CCCCN1 (stereo not drawn) [IIa.01, 2-(2,3-dihydro-1H-inden-1-yl)piperidine] |  |  | chromatographic logP ([1]; logP): 0.52
45 | Cn1nc(C(=O)N2CCCC2C2CCc3cc(F)cc(F)c32)c(C(F)F)n1 (single isomer, unassigned) [I.14, [2-(5,7-difluoro-2,3-dihydro-1H-inden-1-yl)pyrrolidin-1-yl][5-(difluoromethyl)-2-methyl-2H-1,2,3-triazol-4-yl]methanone] |  |  | chromatographic logP ([1]; reversed-phase HPLC column (C 18), Table 1, HPLC, 0.1% aqueous formic acid and acetonitrile, 40° C., single value, or first value of a mixture of two diastereoisomers, read-out: logP): 3.41
